According to patent US20040152648A1, “Pyruvate-kinase as a novel target molecule” (priority 2001, published 2004):
Where a SMILES comes first, the peptide text is derived from it. [ ]: non-standard residue; d: D form. Nle = CCCC[C@H](N)C(=O)O

Columns and labels:
Format in all cases: cell-based
[1] = tested on: nuclear PK-M2 processing in Cos-7 cells; test: protease inhibitor pre-treatment, electrophoretic mobility of nuclear PK-M2; conditions: Cos-7 cells pre-treated with protease inhibitor
[2] = tested on: endogenous PK-M2 in Cos-7 cells; test: subcellular localisation of endogenous PK-M2, cytosolic/nuclear fractions, Western-blot; conditions: 50 μM TT-232 or 100 μM hydrogen-peroxide, FIG. 8
Procedure: Subcellular localisation of endogenous PK-M2 upon peroxide or UV stimulation. Cos-7 cells were untreated, treated with 50 μM TT-232 (A), 100 μM hydrogen-peroxide (B), or 120 mJ/cm^2 UV (C) and incubated for different times as indicated. Cells were separated into cytosolic (c) or nuclear (n) fractions loaded in triplicate and blotted with PK-M2 (uppest panels), Erk-2 (middle panels) or Histone H1 (lowest panels).
In order investigate further Cos-7 cells were treated, separated into cytosolic and nuclear fractions by NP-40 lysis and analysed with polyclonal PKM2 specific antibody (Weernink et al., 1988) for endogenous PK-M2 by Western-blots. To rule out cross contamination, samples were loaded in triplicate and blotted with PK-M2, Erk-2 or Histone H1 antibodies.

[3] = molecular target: T1, pEGFP-PK-M2 (pyruvate-kinase fused to GFP) in Cos-7 cells (Homo sapiens, UniProt P14618); test: nuclear translocation of GFP-fused pyruvate-kinase in transiently transfected Cos-7 cells; conditions: pEGFP-PK-M2, 1 mM hydrogen peroxide for 4 hours, FIG. 4
T1 construct: producing wild type pyruvate-kinase N-terminally fused to GFP; expressed in transfected cells; host or cells: Cos-7
T1 sequence (P14618 whole entry, the tested form may be a part): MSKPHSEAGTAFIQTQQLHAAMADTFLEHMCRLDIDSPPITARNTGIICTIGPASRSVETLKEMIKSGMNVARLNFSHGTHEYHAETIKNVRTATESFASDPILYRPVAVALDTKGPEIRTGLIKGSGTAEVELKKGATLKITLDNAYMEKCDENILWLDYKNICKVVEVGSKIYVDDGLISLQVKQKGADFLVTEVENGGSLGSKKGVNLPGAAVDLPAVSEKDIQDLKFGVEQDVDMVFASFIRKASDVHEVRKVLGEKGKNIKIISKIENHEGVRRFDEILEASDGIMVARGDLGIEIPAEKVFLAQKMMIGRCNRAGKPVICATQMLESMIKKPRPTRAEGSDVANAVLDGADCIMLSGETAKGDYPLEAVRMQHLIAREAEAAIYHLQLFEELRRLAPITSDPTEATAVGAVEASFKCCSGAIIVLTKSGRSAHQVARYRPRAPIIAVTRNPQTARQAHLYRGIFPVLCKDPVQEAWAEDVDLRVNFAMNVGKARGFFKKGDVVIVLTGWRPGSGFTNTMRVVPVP
Source text: Nuclear translocation of the pyruvate-kinase upon different apoptotic stimuli. Cos-7 cells were transiently transfected with pEGFP-PK-M2 eukaryotic expression plasmid (producing wild type pyruvate-kinase N-terminally fused to GFP)
Nuclear translocation of the pyruvate-kinase deletion mutants upon apoptotic stimuli. […] (Ex: 485 nm=GFP, Ex: 390=propidium-iodide)
Cells were fixed with 1% glutaraldehyde and the localisation of GFP was detected and analysed with fluorescent microscope and InoVision confocal imaging software. Nuclei were stained with propidium-iodine (FIG. 5).

Compound | reversal of increased electrophoretic mobility of nuclear enzyme [1] | translocation of endogenous PK-M2 into the nucleus [2] | nuclear translocation of GFP-fused pyruvate-kinase [3]
NCCc1ccc(S(=O)(=O)F)cc1 [AEBSF] | not able to revert this effect | – | –
Cc1ccc(S(=O)(=O)N[C@@H](Cc2ccccc2)C(=O)CCl)cc1 [TPCK] | not able to revert this effect | – | –
OO [hydrogen peroxide] | – | induced the translocation of the endogenous PK-M2 into the nucleus | nuclear translocation of the pyruvate-kinase occurs
CCCC[C@@H](C=O)NC(=O)[C@H](CC(C)C)NC(=O)[C@H](CC(C)C)NC(C)=O [ALLN] (Ac-Leu-Leu-[Nle]-aldehyde) | not able to revert this effect | – | –
